Measurements: US20130202724A1, “SOYBEAN EXTRACTS FOR THE TREATMENT OF HEPATIC DISORDERS” (Hadasit Medical Research Services and Development Ltd., priority 2010, published 2013)

Key:
HFD-fed mice = assay: HFD obese mouse model with soybean extracts M1, OS and combinations (Example 7); type: in vivo
Description: Five mice per experimental group were fed HFD diet, comprising 42% calories from fat. The mice were administered the indicated extracts per os 3 times a week for three months, and then sacrificed. The mice weight, fasting glucose levels, ALT, serum triglycerides (TGs) and cholesterol were determined every 2 weeks. Glucose Tolerance Test was performed after 4 and 12 weeks. On sacrifice day, serum and a liver biopsy were collected for determination of serum insulin levels, liver TG and for H&E histological analysis.
After sacrifice, measurements of serum ALT and AST activities were carried out, and serum levels of IFN-γ, TNF-α and insulin were determined.
TGs were extracted from aliquots of snap-frozen livers using a modification of the Folch method. Hepatic TG content was assayed spectrophotometrically using a GPO-Trinder kit and was normalized to the protein content in the homogenate.
Plasma TG and total cholesterol were measured by a clinical chemistry analyzer, the Reflovet Plus machine.
Fasting glucose levels were measured after overnight (12 h) fasting. Serum glucose measurements were performed on tail-vein blood by a standard glucometer.
Mice underwent a GTT after overnight fasting. Glucose was administered orally (1.25 g/kg body weight). Serum glucose measurements were performed on tail-vein blood every 15 min for 3 h. Glucose levels were measured by a standard glucometer.
Serum insulin levels were determined using a commercially available ELISA kit (Mercodia), according to the manufacturer's instructions. Serum was collected from euthanized mice on the day of sacrifice (after 12 h fasting) and kept in −80° C. until analysis.
Serum levels of IFN-γ, TNF-α, and IL-6 were determined by “sandwich” ELISA using commercial kits according to the manufacturer's instructions.
Flow cytometry was performed following splenocyte and hepatic lymphocyte isolation using 1×10^6 lymphocytes in 100 μl PBS with 0.1% BSA. For surface staining, cells were incubated with fluorochrome-conjugated antibodies to the indicated cell surface markers at the recommended dilutions or with isotype control antibodies for 30 minutes at 4° C. The following cell surface anti-mouse antibodies were used: CD4/CD3-Pacific Blue, CD25/NK1.1-PE and CD8-FITC. Cells were then washed in PBS containing 1% BSA and fixed with fixation buffer for another 50 minutes. For intracellular staining of Foxp3, fixed cells were permeabilized with Foxp3 staining buffer. Cells were then stained with PE-Cy7-conjugated antibodies to Foxp3, washed twice and resuspended in 250 μl of PBS containing 1% BSA and kept at 4° C. One million stained cells in 250 μl of PBS containing 1% BSA were subsequently analyzed using a FACS LSR II instrument with FCS express V.3 software. Only live cells were counted, and background fluorescence from non-antibody-treated lymphocytes was subtracted.
A HFD obese mouse model was therefore used to assess the hepatoprotective action of the soybean extracts M1, OS and their combinations. Young (6-7 weeks old) male C57BL/6 mice (5 mice per experimental group) were fed HFD diet ad libitum for 12 weeks. The mice were administered the indicated soybean extracts or combinations per os 3 times a week for the duration of the experiment. After 12 weeks, the mice were sacrificed. During the experiment the mice weight, fasting glucose level, ALT, serum triglycerides (TGs) and cholesterol were measured every 2 weeks, and glucose tolerance test was carried out after the fourth and twelfth weeks. On sacrifice day, serum samples and livers were collected. Serum TNF-α and insulin were determined, hepatic TG were measured and a liver section stained with H&E was prepared and analyzed. A FACS analysis of splenic T regulatory and NKT cells was also performed.

[1] = tested on: ConA-challenged C57BL-6 mice; assay: ConA-induced hepatotoxicity with soybean-derived extracts (Example 6); type: in vivo; details: combinations 1:1, especially 0.3 and 3 μg per mouse
Description: Either two (Example 1 (A)) or three (Example 1 (B)) groups of mice (10 mice per group) were studied. ConA was dissolved in 50 mM Tris (pH 7), 150 mM NaCl, and 4 mM CaCl2. To induce autoimmune hepatitis, mice were injected i.v. with 20 mg/kg ConA. Control mice were injected with PBS. A specified dosage of […] or vehicle was administered to the mice orally […] before (Example 1 (A)) or 30 min after (Example 1 (B)) they had received an injection of ConA. The mice were sacrificed 16 h (Example 1 (A)) or 17 h (Example 1 (B)) later. For Example 4 (ConA challenge in different […] extracts), six groups of 4-5 11-12 weeks old male C57BL/6 mice were treated per os for three days with extracts as show in Table 4. The mice were injected i.v. (tail vein) 500 μg of ConA, (20 mg/kg body weight) and sacrificed 14 h later. After sacrifice measurements of serum IFN-γ was carried out using ELISA. […] Serum ALT and AST activities were determined and serum levels of IFN-γ and TNF-α were measured. […] Serum levels of IFN-γ, TNF-α, and IL-6 were determined by “sandwich” ELISA using commercial kits according to the manufacturer's instructions. […] Serum ALT and AST activities were determined and serum levels of IFN-γ and TNF-α were measured.

## glucosylceramide [GC]
HFD-fed mice; HFD model, combinations 1:1, 0.3 μg and 3 μg per mouse
  effectiveness over all tested parameters, summary: effective but not in all tested parameters
HFD-fed mice; M1/OS mixtures (both doses), GC 25 μg, vs control mice
  fasting glucose levels: significantly lower
HFD-fed mice; after 12 weeks in HFD, vs control and OS-treated mice
  GTT results: marked improvement
HFD-fed mice; both M1/OS mixture doses (0.3 μg each and 3 μg each), GC 25 μg
  liver lipid accumulation (H&E stained liver sections): striking improvement
HFD-fed mice; single agents (M1 3 μg, GC 25 μg), week 12, vs control mice
  hepatic TG levels: no clear effect
HFD-fed mice; single agents (OS 3 μg, GC 25 μg, M1 3 μg), week 12
  fasting insulin levels: lowest
[1]
  hepatic protection (liver enzymes and serum IFN-γ and TNF-α), summary: significant decrease
